Source: patent US4753953A, “Pyridonecarboxylic acid derivatives and antibacterial pharmaceutical compositions thereof” (priority 1985, dated 1988)
Converted amounts (≈) assume the structure as drawn. Where two headings read alike, the source gives them in different places.

Experiments:
[1] = test system: Bacteroides fragilis GM 7000; test: MIC, in vitro antibacterial activity (standard strains); assay type: cell-based; conditions: Bacteroides fragilis, GM7000; 10^6 cells/ml; Gram -; read-out: MIC
[2] = test system: Citrobacter freundii IID 976; test: as above; assay type: cell-based; conditions: Citrobacter freundii, IID976; 10^6 cells/ml; Gram -; read-out: MIC
[3] = test system: Acinetobacter anitratus IID 876; test: as above; assay type: cell-based; conditions: Acinetobacter calcoaceticus, IID876; 10^6 cells/ml; Gram -; read-out: MIC
[4] = test system: Morganella morganii IID 602; test: as above; assay type: cell-based; conditions: Morganella morganii, IID602; 10^6 cells/ml; Gram -; read-out: MIC
[5] = test system: Klebsiella pneumoniae KY(GN)6445; test: as above; assay type: cell-based; conditions: Klebsiella pneumoniae; 10^6 cells/ml; Gram -; read-out: MIC
[6] = test system: Peptostreptococcus anaerobius KYA 27337; test: as above; assay type: cell-based; conditions: Peptostreptococcus anaerobius, KYA27337; 10^6 cells/ml; Gram +; read-out: MIC
[7] = test system: P. mirabilis IID 994; test: as above; assay type: cell-based; conditions: Proteus mirabilis, IID994; 10^6 cells/ml; Gram -; read-out: MIC
[8] = test system: Propionibacterium acens 11828; test: as above; assay type: cell-based; conditions: Propionibacterium, 11828; 10^6 cells/ml; Gram +; read-out: MIC
[9] = test system: Fusobacterium mortiferum 4249; test: as above; assay type: cell-based; conditions: Fusobacterium mortiferum, 4249; 10^6 cells/ml; Gram -; read-out: MIC
[10] = test system: Alcaligenes faecalis 0114002; test: as above; assay type: cell-based; conditions: Alcaligenes faecalis, 0114002; 10^6 cells/ml; Gram -; read-out: MIC
[11] = test system: Enterobacter cloacae IID 977; test: as above; assay type: cell-based; conditions: Enterobacter cloacae, IID977; 10^6 cells/ml; Gram -; read-out: MIC
[12] = test system: B. fragilis 25285; test: as above; assay type: cell-based, Bacteroides fragilis; conditions: Bacteroides fragilis, 25285; 10^6 cells/ml; Gram -; read-out: MIC
[13] = test system: S. aureus Smith; test: as above; assay type: cell-based, Staphylococcus aureus; conditions: Staphylococcus aureus; 10^6 cells/ml; Gram +; read-out: MIC
[14] = test system: P. cepacia GIFU 518; test: as above; assay type: cell-based; conditions: Burkholderia cepacia, GIFU518
[15] = test system: B. thetaiotaomicron (0661); test: as above; assay type: cell-based; conditions: Bacteroides thetaiotaomicron; 10^6 cells/ml; Gram -; read-out: MIC
[16] = test system: Eubacterium lentum GAI 5242; test: as above; assay type: cell-based; conditions: Eggerthella lenta, GAI5242; 10^6 cells/ml; Gram +; read-out: MIC
[17] = test system: Escherichia coli NIHJ JC-2; test: as above; assay type: cell-based; conditions: Escherichia coli, NIHJJC2
[18] = test system: Salmonella enteritidis IID 604; test: as above; assay type: cell-based; conditions: Salmonella enterica; 10^6 cells/ml; Gram -; read-out: MIC
[19] = test system: C. perfringens KYA 13123; test: microbe, parasite or virus in culture; assay type: cell-based; conditions: Clostridium perfringens, KYA13123
[20] = test system: S. aureus IID 670 (Terajima); test: MIC, in vitro antibacterial activity (standard strains); assay type: cell-based, Staphylococcus aureus; conditions: Staphylococcus aureus, IID670; 10^6 cells/ml; Gram +; read-out: MIC
[21] = test system: K. pneumoniae 1-220S; test: as above; assay type: cell-based, Klebsiella pneumoniae; conditions: Klebsiella pneumoniae, 1220S; 10^6 cells/ml; Gram -; read-out: MIC
[22] = test system: S. pyogenes IID 692; test: as above; assay type: cell-based, Streptococcus pyogenes; conditions: Streptococcus pyogenes, IID692; 10^6 cells/ml; Gram +; read-out: MIC
[23] = test system: Veillonella parvula KYA 10790; test: as above; assay type: cell-based; conditions: Veillonella parvula, KYA10790; 10^6 cells/ml; Gram -; read-out: MIC
[24] = test system: Pseudomonas aeruginosa V-1; test: as above; assay type: cell-based; conditions: Pseudomonas aeruginosa, V1; 10^6 cells/ml; Gram -; read-out: MIC
[25] = test system: Shigella sonnei IID 969; test: as above; assay type: cell-based; conditions: Shigella sonnei, IID969; 10^6 cells/ml; Gram -; read-out: MIC
Method: Minimal inhibitory concentrations (MICs) were determined in accordance with the method recommended by Japan Society of Chemotherapy.

[26] = test system: Yersinia enterocolitica IID 981; test: as above; assay type: cell-based; conditions: Yersinia enterocolitica, IID981; 10^6 cells/ml; Gram -; read-out: MIC
[27] = test system: P. aeruginosa IFO 12689; test: as above; assay type: cell-based, Pseudomonas aeruginosa; conditions: Pseudomonas aeruginosa, IFO12689; 10^6 cells/ml; Gram -; read-out: MIC
[28] = test system: P. aeruginosa IID 1210; test: as above; assay type: cell-based, Pseudomonas aeruginosa; conditions: Pseudomonas aeruginosa, IID1210; 10^6 cells/ml; Gram -; read-out: MIC
[29] = test system: P. maltophilia GIFU 2491; test: as above; assay type: cell-based; conditions: Stenotrophomonas maltophilia, GIFU2491; 10^6 cells/ml; Gram -; read-out: MIC
[30] = test system: S. pneumoniae IID 552; test: as above; assay type: cell-based; conditions: Streptococcus pneumoniae, IID552; 10^6 cells/ml; Gram +; read-out: MIC
[31] = test system: Staphylococcus aureus 209 P; test: as above; assay type: cell-based; conditions: Staphylococcus aureus, 209P; 10^6 cells/ml; Gram +; read-out: MIC
[32] = test system: E. faecalis IID 682; test: as above; assay type: cell-based; conditions: Enterococcus faecalis, IID682; 10^6 cells/ml; Gram +; read-out: MIC
[33] = 10^6 cells/ml, Gram -, read-out: MIC

SMILES	MIC [1] [µg/mL]	MIC [2] [µg/mL]	MIC [3] [µg/mL]	MIC [4] [µg/mL]	MIC [5] [µg/mL]	MIC [6] [µg/mL]	MIC [7] [µg/mL]	MIC [8] [µg/mL]	MIC [9] [µg/mL]	MIC [10] [µg/mL]	MIC [11] [µg/mL]	MIC [12] [µg/mL]	MIC [13] [µg/mL]	MIC [15] [µg/mL]	MIC [16] [µg/mL]	MIC [18] [µg/mL]	MIC [19] [µg/mL]	MIC [20] [µg/mL]	MIC [21] [µg/mL]	MIC [22] [µg/mL]	other results
CCn1cc(C(=O)O)c(=O)c2cc(F)c(N3C[C@@H](N)[C@@H](C)C3)c(F)c21 (relative stereo) [Example 22, 7-(cis-3-Amino-4-methyl-1-pyrrolidinyl)-1-ethyl-6,8-difluoro-1,4-dihydro-4-oxo-3-quinolinecarboxylic acid]	3.13 (≈ 8.91 µM)	0.05 (≈ 0.142 µM)	0.39 (≈ 1.11 µM)	0.2 (≈ 0.569 µM)	0.05 (≈ 0.142 µM)	3.13 (≈ 8.91 µM)	0.1 (≈ 0.285 µM)	25 (≈ 71.2 µM)	1.56 (≈ 4.44 µM)	1.56 (≈ 4.44 µM)	0.1 (≈ 0.285 µM)	1.56 (≈ 4.44 µM)	0.2 (≈ 0.569 µM)	3.13 (≈ 8.91 µM)	1.56 (≈ 4.44 µM)	0.1 (≈ 0.285 µM)	0.78 (≈ 2.22 µM)	0.2 (≈ 0.569 µM)	0.1 (≈ 0.285 µM)	0.78 (≈ 2.22 µM)	MIC [14]: 0.78 µg/mL (≈ 2.22 µM); MIC [17, 33]: 0.05 µg/mL (≈ 0.142 µM); MIC [23]: 0.78 µg/mL (≈ 2.22 µM); MIC [24]: 0.39 µg/mL (≈ 1.11 µM); MIC [25]: 0.1 µg/mL (≈ 0.285 µM); MIC [26]: 0.1 µg/mL (≈ 0.285 µM); MIC [27]: 1.56 µg/mL (≈ 4.44 µM); MIC [28]: 6.25 µg/mL (≈ 17.8 µM); MIC [29]: 0.78 µg/mL (≈ 2.22 µM); MIC [30]: 0.78 µg/mL (≈ 2.22 µM); MIC [31]: 0.1 µg/mL (≈ 0.285 µM); MIC [32]: 0.78 µg/mL (≈ 2.22 µM)
C[C@H]1CN(c2c(F)cc3c(=O)c(C(=O)O)cn(C4CC4)c3c2F)C[C@H]1N.Cl (relative stereo) [Example 20, 7-(cis-3-Amino-4-methyl-1-pyrrolidinyl)-1-cyclopropyl-6,8-difluoro-1,4-dihydro-4-oxo-3-quinolinecarboxylic acid hydrochloride]	0.39	0.025	0.05	0.05	0.025	0.39	0.05	3.13	0.39	0.39	0.05	0.39	0.05	0.78	0.2	0.05	0.2	0.05	0.05	0.39	MIC [14, 33]: 0.39 µg/mL; MIC [17]: 0.0125 µg/mL; MIC [23]: 0.2 µg/mL; MIC [24]: 0.2 µg/mL; MIC [25]: 0.0125 µg/mL; MIC [26]: 0.05 µg/mL; MIC [27]: 0.39 µg/mL; MIC [28]: 0.78 µg/mL; MIC [29]: 0.39 µg/mL; MIC [30]: 0.2 µg/mL; MIC [31]: 0.05 µg/mL; MIC [32]: 0.2 µg/mL
C[C@H]1CN(c2c(F)cc3c(=O)c(C(=O)O)cn(C4CC4)c3c2Cl)C[C@H]1N (relative stereo) [Example 16, 7-(cis-3-Amino-4-methyl-1-pyrrolidinyl)-8-chloro-1-cyclopropyl-6-fluoro-1,4-dihydro-4-oxo-3-quinolinecarboxylic acid]	0.05 (≈ 0.132 µM)	0.025 (≈ 0.0658 µM)	0.025 (≈ 0.0658 µM)	0.05 (≈ 0.132 µM)	0.025 (≈ 0.0658 µM)	0.1 (≈ 0.263 µM)	0.025 (≈ 0.0658 µM)	0.78 (≈ 2.05 µM)	0.1 (≈ 0.263 µM)	0.1 (≈ 0.263 µM)	0.05 (≈ 0.132 µM)	0.05 (≈ 0.132 µM)	0.025 (≈ 0.0658 µM)	0.1 (≈ 0.263 µM)	0.05 (≈ 0.132 µM)	0.025 (≈ 0.0658 µM)	0.05 (≈ 0.132 µM)	0.05 (≈ 0.132 µM)	0.05 (≈ 0.132 µM)	0.1 (≈ 0.263 µM)	MIC [14]: 0.39 µg/mL (≈ 1.03 µM); MIC [17, 33]: 0.0063 µg/mL (≈ 0.0166 µM); MIC [23]: 0.1 µg/mL (≈ 0.263 µM); MIC [24]: 0.1 µg/mL (≈ 0.263 µM); MIC [25]: 0.0063 µg/mL (≈ 0.0166 µM); MIC [26]: 0.05 µg/mL (≈ 0.132 µM); MIC [27]: 0.39 µg/mL (≈ 1.03 µM); MIC [28]: 0.39 µg/mL (≈ 1.03 µM); MIC [29]: 0.05 µg/mL (≈ 0.132 µM); MIC [30]: 0.1 µg/mL (≈ 0.263 µM); MIC [31]: 0.05 µg/mL (≈ 0.132 µM); MIC [32]: 0.1 µg/mL (≈ 0.263 µM)
CNCC1CN(c2c(F)cc3c(=O)c(C(=O)O)cn(C4CC4)c3c2F)CC1C (stereo not shown) [Example 13, 1-Cyclopropyl-6,8-difluoro-1,4-dihydro-7-(3-methylaminomethyl-4-methyl-1-pyrrolidinyl)-4-oxo-3-quinolinecarboxylic acid]	0.78 (≈ 1.99 µM)	0.05 (≈ 0.128 µM)	0.1 (≈ 0.255 µM)	0.2 (≈ 0.511 µM)	0.05 (≈ 0.128 µM)	0.2 (≈ 0.511 µM)	0.2 (≈ 0.511 µM)	1.56 (≈ 3.99 µM)	0.39 (≈ 0.996 µM)	0.78 (≈ 1.99 µM)	0.2 (≈ 0.511 µM)	0.78 (≈ 1.99 µM)	0.05 (≈ 0.128 µM)	3.13 (≈ 8 µM)	0.78 (≈ 1.99 µM)	0.1 (≈ 0.255 µM)	0.2 (≈ 0.511 µM)	0.05 (≈ 0.128 µM)	0.2 (≈ 0.511 µM)	0.2 (≈ 0.511 µM)	MIC [14]: 0.78 µg/mL (≈ 1.99 µM); MIC [17, 33]: 0.05 µg/mL (≈ 0.128 µM); MIC [23]: 0.78 µg/mL (≈ 1.99 µM); MIC [24]: 0.39 µg/mL (≈ 0.996 µM); MIC [25]: 0.05 µg/mL (≈ 0.128 µM); MIC [26]: 0.1 µg/mL (≈ 0.255 µM); MIC [27]: 3.13 µg/mL (≈ 8 µM); MIC [28]: 1.56 µg/mL (≈ 3.99 µM); MIC [29]: 0.39 µg/mL (≈ 0.996 µM); MIC [30]: 0.1 µg/mL (≈ 0.255 µM); MIC [31]: 0.05 µg/mL (≈ 0.128 µM); MIC [32]: 0.2 µg/mL (≈ 0.511 µM)
C[C@H]1CN(c2c(F)cc3c(=O)c(C(=O)O)cn4c3c2OC[C@@H]4C)C[C@H]1N.Cl (mixture of isomers) [Example 31, (3S)-10-(cis-3-Amino-4-methyl-1-pyrrolidinyl)-9-fluoro-2,3-dihydro-3-methyl-7-oxo-7H-pyrido[1,2,3-de][1,4]benzoxazine-6-carboxylic acid hydrochloride]	1.56	0.05	1.56	0.2	0.05	0.39	0.1	6.25	0.39	0.39	0.1	0.78	0.2	3.13	0.39	0.1	0.2	0.2	0.1	0.2	MIC [14, 33]: 1.56 µg/mL; MIC [17, 33]: 0.025 µg/mL; MIC [23]: 0.2 µg/mL; MIC [24]: 0.39 µg/mL; MIC [25]: 0.05 µg/mL; MIC [26]: 0.1 µg/mL; MIC [27]: 0.78 µg/mL; MIC [28]: 3.13 µg/mL; MIC [29]: 0.78 µg/mL; MIC [30]: 0.2 µg/mL; MIC [31]: 0.2 µg/mL; MIC [32]: 0.2 µg/mL
